Structures are written as SMILES. Structures can show the parent of a compound that is named as a salt.

Experimental findings from patent US4710571A, “1H-imidazol-1-ethanol esters” (Gist-Brocades N.V., priority 1983, dated 1987) are described below.

For one series, the system named is ear sebaceous glands. Nature of the series: lipid (sebum) synthesis in ear sebaceous glands of androgen-stimulated female hamsters, ear biopsies incubated with radioactive acetate. It counts as in vivo, hamster. Conditions: for lipid synthesis inhibition / inhibition in vivo at 100 µg/day: dose 100 μg per day; for lipid synthesis inhibition / inhibition in vivo at 100 µg/day / inhibition in vivo at 500 µg/day: androgen-stimulated female hamsters, percentages may rise over 100%; for inhibition in vivo at 500 µg/day: dose 500 μg per day. The protocol: The sebum synthesis inhibiting activities of 1H-imidazole-1-ethanol and the esters of formula I were established in a number of animal species and particularly in the hamster much research has been carried out. Androgens administered to female hamsters stimulate the sebum synthesis in ear sebaceous glands and the extent of sebum synthesis is determined by incubating ear biopsies with radioactive acetate (Hall D. W. R. et al, Hormonal Control of Hamster Ear Sebaceous Gland Lipogenesis, Arch. Dermatol Res., 275, 1 (1983)). The test was based on the conversion of the added radioactive acetate into lipids which after extraction with hexane can be determined in a scintillation counter. In the following Table, the inhibition percentages of a number of substances are shown and the percentages may rise over 100%. A very strong activity of a compound will inhibit both the activity stimulated by androgen and the basal sebum synthesis activity of the sebaceous gland.

In the next series the test system is sebum secretion. Nature of the series: inhibition of sebum secretion in humans. It counts as in vivo, human.
The nature of another series: penetration of the skin. It counts as in vivo, human. The following applies: in humans.
Another series in a line: skin irritation. It counts as in vivo, human. The following applies: in humans.
The test system of series [1] is lipid synthesis in other organs. Nature of the series: lipid synthesis inhibition in organs other than the sebaceous glands. It counts as in vivo. The following applies: animal tests.
The next series concerns hormonal activity. Nature of the series: hormonal activity in animal tests. It counts as in vivo.

For the molecule `O=C(OCCn1ccnc1)c1ccc(Cl)cc1Cl` [2,4-Cl2 C6 H3, base], the lipid synthesis inhibition in the series on ear sebaceous glands turned out to be 60%.
For `O=C(O)/C=C\C(=O)O.O=C(OCCn1ccnc1)c1ccc(Cl)cc1Cl` [2,4-Cl2 C6 H3, maleate, 2-(1H-imidazol-1-yl)-ethyl 2,4-dichlorobenzoate (Z)-2-butenedioate(1:1)], in the series on ear sebaceous glands, the lipid synthesis inhibition turned out to be 37%.
With `O=C(OCCn1ccnc1)c1cccs1` [2-thiophene, 2-(1H-imidazol-1-yl)-ethyl 2-thiophenecarboxylate], the inhibition in vivo at 100 µg/day in the series with ear sebaceous glands (Mesocricetus auratus) is 89%.
Regarding `O=C(OCCn1ccnc1)c1ccc(C(F)(F)F)cc1` [4-CF3 C6 H4], the inhibition in vivo at 500 µg/day with ear sebaceous glands (Mesocricetus auratus) came to 70%.
In the case of `Cc1ccc(C(=O)OCCn2ccnc2)cc1` [4-CH3 C6 H4, base], the inhibition in vivo at 100 µg/day in the series on ear sebaceous glands (Mesocricetus auratus) stood at 91%.
In the case of `Cc1ccc(C(=O)OCCn2ccnc2)cc1` [4-CH3 C6 H4, maleate], the inhibition in vivo at 500 µg/day in the series on ear sebaceous glands (Mesocricetus auratus) came to 92%.
Regarding `COc1ccc(C(=O)OCCn2ccnc2)cc1` [4-CH3 OC6 H4], the inhibition in vivo at 100 µg/day in the series with ear sebaceous glands (Mesocricetus auratus) is 83%.
`O=C(OCCn1ccnc1)c1ccc(Cl)cc1` [4-ClC6 H4]: the inhibition in vivo at 500 µg/day in the series on ear sebaceous glands (Mesocricetus auratus) was determined as 49%.
Regarding `O=C(OCCn1ccnc1)c1ccncc1` [4-pyridyl], the inhibition in vivo at 100 µg/day in the series with ear sebaceous glands (Mesocricetus auratus) worked out at 44%.
On to `CC(C)(C)c1ccc(C(=O)OCCn2ccnc2)cc1` [4-tBuC6 H4, HCl], for which the inhibition in vivo at 500 µg/day in the series with ear sebaceous glands (Mesocricetus auratus) was 81%.
As to `CC(C)(C)c1ccc(C(=O)OCCn2ccnc2)cc1` [4-tBuC6 H4, base], the inhibition in vivo at 100 µg/day with ear sebaceous glands (Mesocricetus auratus) turned out to be 67%.
Turning to `CCCC(=O)OCCn1ccnc1` [(CH2)2 CH3], the inhibition in vivo at 100 µg/day in the series on ear sebaceous glands (Mesocricetus auratus) was 106%.
On to `CC(C)(C)C(=O)OCCn1ccnc1` [(CH3)3 --C--], for which the inhibition in vivo at 100 µg/day in the series with ear sebaceous glands (Mesocricetus auratus) is 72%.
On to `O=C(CCc1ccccc1)OCCn1ccnc1` [C6 H5 (CH2)2], for which the inhibition in vivo at 100 µg/day in the series on ear sebaceous glands (Mesocricetus auratus) was 76%.
With `O=C(C=Cc1ccccc1)OCCn1ccnc1` [C6 H5 --CH=CH], the inhibition in vivo at 100 µg/day with ear sebaceous glands (Mesocricetus auratus) came out at 59%.
Regarding `O=C(OCCn1ccnc1)c1ccccc1` [C6 H5, 2-(1H-imidazol-1-yl)-ethyl benzoate], the inhibition in vivo at 100 µg/day with ear sebaceous glands (Mesocricetus auratus) stood at 82%. Also, the “inhibition of the sebum secretion” value in the series with sebum secretion is given as “good inhibition of the sebum secretion”. The “penetration of the skin” value in the series “penetration of the skin” is “good penetration of the skin”. In addition, the irritation result in the series “skin irritation” was “little irriation”. Also, the “lipid synthesis inhibition in other organs” value in series [1] was “no lipid synthesis inhibition in other organs”. Moreover, the hormonal activity result in the series with hormonal activity is listed as “no lipid synthesis inhibition in other organs or hormonal activity were found”.
As for `CCCCCCCCCCCCCCCC(=O)OCCn1ccnc1` [CH3 (CH2)14 --, 2-(1H-imidazol-1-yl)-ethyl hexadecanoate ethanedioate (1:1)], the inhibition in vivo at 100 µg/day with ear sebaceous glands (Mesocricetus auratus) came to 44%.
As to `CC(=O)OCCn1ccnc1` [CH3], the inhibition in vivo at 100 µg/day with ear sebaceous glands (Mesocricetus auratus) came out at 82%.
For `OCCn1ccnc1` [imidazolethanol, 1H-imidazole-1-ethanol], the inhibition in vivo at 1000 µg/day in the series with ear sebaceous glands (Mesocricetus auratus, read-out: lipid synthesis inhibition) turned out to be 37%.
With `CC1=C(/C=C/C(C)=C/C=C/C(C)=C/C(=O)OCCn2ccnc2)C(C)(C)CCC1` [retinoic acid, 2-(1H-imidazol-1-yl)-ethyl retinoate ethanedioate (2:1)], the inhibition in vivo at 100 µg/day in the series on ear sebaceous glands (Mesocricetus auratus) amounted to 39%.
